Measurements reported in patent US9617226B2 (AbbVie Deutschland GmbH & Co. KG, priority 2014, dated 2017).

How the values were obtained:
[1] = target: human vasopressin V1b receptor (Homo sapiens (Human), UniProt P47901); experiment: biochemical
[2] = target: human vasopressin V1a receptor (Homo sapiens (Human), UniProt P37288); experiment: Vasopressin V1a receptor binding assay; conditions: selectivity quotient, human V1a vs human V1b
Procedure: The test substances were dissolved in a concentration of 5 mM M in DMSO. Further dilution of these DMSO solutions took place as described for V1b.
The membrane pellet was again homogenized in a High-Pressure-Homogenizer, Polytec 50K at 1500 PSI (Heinemann, Germany) and subsequently taken up in 50 mM Tris-HCl, pH 7.4, homogenized and stored in aliquots frozen in liquid nitrogen at −190° C.
The incubation buffer was: 50 mM Tris, 10 mM MgCl2, 0.1% BSA, pH 7.4.
Duplicate determinations were carried out.
After incubation (60 minutes at room temperature), the samples were processed as described for V1b.
The binding parameters were calculated by nonlinear regression in SAS.

human vasopressin V1a receptor, sequence (P37288 whole entry): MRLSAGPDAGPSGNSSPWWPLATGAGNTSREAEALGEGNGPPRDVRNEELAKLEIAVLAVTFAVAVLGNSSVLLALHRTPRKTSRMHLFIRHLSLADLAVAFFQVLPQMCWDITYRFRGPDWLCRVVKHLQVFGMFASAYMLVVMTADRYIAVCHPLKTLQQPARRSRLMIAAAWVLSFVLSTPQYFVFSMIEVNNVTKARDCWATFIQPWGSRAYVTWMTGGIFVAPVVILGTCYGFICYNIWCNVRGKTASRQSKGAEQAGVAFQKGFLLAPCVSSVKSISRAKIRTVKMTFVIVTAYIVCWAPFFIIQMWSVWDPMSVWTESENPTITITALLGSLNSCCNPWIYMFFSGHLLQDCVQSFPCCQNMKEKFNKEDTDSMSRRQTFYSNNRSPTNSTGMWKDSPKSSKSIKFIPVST
human vasopressin V1b receptor, sequence (P47901 whole entry): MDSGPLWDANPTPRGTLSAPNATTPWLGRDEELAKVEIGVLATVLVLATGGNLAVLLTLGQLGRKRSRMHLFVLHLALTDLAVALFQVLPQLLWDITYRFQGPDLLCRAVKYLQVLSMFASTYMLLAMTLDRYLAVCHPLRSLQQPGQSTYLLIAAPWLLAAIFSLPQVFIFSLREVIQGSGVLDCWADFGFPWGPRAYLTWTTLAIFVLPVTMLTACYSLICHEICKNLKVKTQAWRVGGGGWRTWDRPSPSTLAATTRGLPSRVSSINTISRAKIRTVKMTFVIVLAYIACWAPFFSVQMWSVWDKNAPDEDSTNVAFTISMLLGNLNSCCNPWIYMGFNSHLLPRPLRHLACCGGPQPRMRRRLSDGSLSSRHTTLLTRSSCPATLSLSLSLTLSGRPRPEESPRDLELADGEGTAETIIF

Ki [1] [nM]	Ki(h-V1a)/Ki(h-V1b) [2]	SMILES
1 to 10	+++ (>75)	CC(C)NC(=O)Cn1c(-c2cccc(Cl)c2)nc2ccc([C@H]3C[C@@H](CN4CCCOCC4)C3)cc2c1=O [Example 25, cis-2-[2-(3-Chlorophenyl)-6-[3-(1,4-oxazepan-4-ylmethyl)cyclobutyl]-4-oxo-quinazolin-3-yl]-N-isopropyl-acetamide]
< 1	+++ (>75)	CC(C)(C)NC(=O)Cn1c(-c2cccc(Cl)c2)nc2ccc([C@H]3C[C@@H](CN4CCCCC4)C3)cc2c1=O [Example 26, cis-N-tert-Butyl-2-[2-(3-chlorophenyl)-4-oxo-6-[3-(1-piperidylmethyl)cyclobutyl]-quinazolin-3-yl]acetamide]
10 to 100	+++ (>75)	O=C(Cn1c(-c2cccc(Cl)c2)nc2ccc([C@H]3C[C@@H](CN4CCCCC4)C3)cc2c1=O)NC1CC1 [Example 27, cis-2-[2-(3-Chlorophenyl)-4-oxo-6-[3-(1-piperidylmethyl)cyclobutyl]quinazolin-3-yl]-N-cyclopropyl-acetamide]
10 to 100	+++ (>75)	CCCNC(=O)Cn1c(-c2cccc(Cl)c2)nc2ccc([C@H]3C[C@@H](CN4CCCCC4)C3)cc2c1=O [Example 28, cis-2-[2-(3-Chlorophenyl)-4-oxo-6-[3-(1-piperidylmethyl)cyclobutyl]quinazolin-3-yl]-N-propyl-acetamide]
10 to 100	+++ (>75)	O=C(Cn1c(-c2cccc(Cl)c2)nc2ccc([C@H]3C[C@@H](CN4CCCCC4)C3)cc2c1=O)NCC1CC1 [Example 29, cis-2-[2-(3-Chlorophenyl)-4-oxo-6-[3-(1-piperidylmethyl)cyclobutyl]quinazolin-3-yl]-N-(cyclopropylmethyl)acetamide]
1 to 10	+++ (>75)	CC(C)NC(=O)Cn1c(-c2cccc(Cl)c2)nc2ccc([C@H]3C[C@@H](CN4CCC(F)CC4)C3)cc2c1=O [Example 30, cis-2-[2-(3-Chlorophenyl)-6-[3-[(4-fluoro-1-piperidyl)methyl]cyclobutyl]-4-oxo-quinazolin-3-yl]-N-isopropyl-acetamide]
1 to 10	+++ (>75)	CC(C)NC(=O)Cn1c(-c2cccc(Cl)c2)nc2ccc([C@H]3C[C@@H](CN4CC5(COC5)C4)C3)cc2c1=O [Example 31, cis-2-[2-(3-Chlorophenyl)-6-[3-(6-oxa-2-azaspiro[3.3]heptan-2-ylmethyl)cyclobutyl]-4-oxo-quinazolin-3-yl]-N-isopropyl-acetamide]
10 to 100	+++ (>75)	CC(C)NC(=O)Cn1c(-c2cccc(Cl)c2)nc2ccc([C@H]3C[C@@H](CN4CCC(O)CC4)C3)cc2c1=O [Example 32, cis-2-[2-(3-Chlorophenyl)-6-[3-[(4-hydroxy-1-piperidyl)methyl]cyclobutyl]-4-oxo-quinazolin-3-yl]-N-isopropyl-acetamide]
1 to 10	+++ (>75)	CC(C)NC(=O)Cn1c(-c2cccc(Cl)c2)nc2ccc([C@H]3C[C@@H](CN4CCC[C@@H](O)C4)C3)cc2c1=O [Example 33, cis-2-[2-(3-Chlorophenyl)-6-[3-[[(3R)-3-hydroxy-1-piperidyl]methyl]cyclobutyl]-4-oxo-quinazolin-3-yl]-N-isopropyl-acetamide]
1 to 10	+++ (>75)	CC(C)NC(=O)Cn1c(-c2cccc(Cl)c2)nc2ccc([C@H]3C[C@@H](CN4CC[C@@H](C)C4)C3)cc2c1=O [Example 34, cis-2-[2-(3-Chlorophenyl)-6-[3-[[(3R)-3-methylpyrrolidin-1-yl]methyl]cyclobutyl]-4-oxo-quinazolin-3-yl]-N-isopropyl-acetamide]
10 to 100	+++ (>75)	COC1CN(C[C@H]2C[C@@H](c3ccc4nc(-c5cccc(Cl)c5)n(CC(=O)NC(C)C)c(=O)c4c3)C2)C1 [Example 35, cis-2-[2-(3-Chlorophenyl)-6-[3-[(3-methoxyazetidin-1-yl)methyl]cyclobutyl]-4-oxo-quinazolin-3-yl]-N-isopropyl-acetamide]
1 to 10	+++ (>75)	CC(C)NC(=O)Cn1c(-c2cccc(Cl)c2)nc2ccc([C@H]3C[C@@H](CN4CCC(C)(O)CC4)C3)cc2c1=O [Example 36, cis-2-[2-(3-Chlorophenyl)-6-[3-[(4-hydroxy-4-methyl-1-piperidyl)methyl]cyclobutyl]-4-oxo-quinazolin-3-yl]-N-isopropyl-acetamide]
1 to 10	+++ (>75)	CC(C)NC(=O)Cn1c(-c2cccc(Cl)c2)nc2ccc([C@H]3C[C@@H](CN4CCC[C@H](O)C4)C3)cc2c1=O [Example 37, cis-2-[2-(3-Chlorophenyl)-6-[3-[ [(3S)-3-hydroxy-1-piperidyl]methyl]cyclobutyl]-4-oxo-quinazolin-3-yl]-N-isopropyl-acetamide]
1 to 10	+++ (>75)	CC(C)NC(=O)Cn1c(-c2cccc(Cl)c2)nc2ccc([C@H]3C[C@@H](CN4CCC(C(F)(F)F)CC4)C3)cc2c1=O [Example 38, cis-2-[2-(3-Chlorophenyl)-4-oxo-6-[3-[[4-(trifluoromethyl)-1-piperidyl]methyl]cyclobutyl]quinazolin-3-yl]-N-isopropyl-acetamide]
1 to 10	+++ (>75)	CC(C)NC(=O)Cn1c(-c2cccc(Cl)c2)nc2ccc([C@H]3C[C@@H](CN4CC5(CCOCC5)C4)C3)cc2c1=O [Example 41, cis-2-[2-(3-Chlorophenyl)-6-[3-(7-oxa-2-azaspiro[3.5]nonan-2-ylmethyl)cyclobutyl]-4-oxo-quinazolin-3-yl]-N-isopropyl-acetamide]
1 to 10	+++ (>75)	CC(C)NC(=O)Cn1c(-c2cccc(Cl)c2)nc2ccc([C@H]3C[C@@H](CN4C[C@@H](C)O[C@@H](C)C4)C3)cc2c1=O [Example 42, cis-2-[2-(3-Chlorophenyl)-6-[3-[[(2S,6R)-2,6-dimethylmorpholin-4-yl]methyl]cyclobutyl]-4-oxo-quinazolin-3-yl]-N-isopropyl-acetamide]
1 to 10	+++ (>75)	CC(C)NC(=O)Cn1c(-c2cccc(Cl)c2)nc2ccc([C@H]3C[C@@H](CN4CCOC[C@H]4C)C3)cc2c1=O [Example 44, cis-2-[2-(3-Chlorophenyl)-6-[3-[[(3R)-3-methylmorpholin-4-yl]methyl]cyclobutyl]-4-oxo-quinazolin-3-yl]-N-isopropyl-acetamide]
1 to 10	+++ (>75)	C[C@H](NC(=O)Cn1c(-c2cccc(Cl)c2)nc2ccc([C@H]3C[C@@H](CN4CCCCC4)C3)cc2c1=O)C(F)(F)F [Example 45]
10 to 100	++ (25-75)	C[C@@H](NC(=O)Cn1c(-c2cccc(Cl)c2)nc2ccc([C@H]3C[C@@H](CN4CCCCC4)C3)cc2c1=O)C(F)(F)F [Example 46]
